Consider one compound from patent US6548270B1, “DNA encoding human acid-sensing ion channel BNaC4 (ASIC4)” (Ortho-McNeil Pharmaceutical, Inc., priority 2000, dated 2003).

The term Kd denotes the free concentration of one partner at which half of the binding sites on the other are occupied at equilibrium, for simple one-to-one binding.

The target in one assay is T1, ASIC1A (Rattus norvegicus, UniProt P55926).
T1 sequence (P55926 1-526): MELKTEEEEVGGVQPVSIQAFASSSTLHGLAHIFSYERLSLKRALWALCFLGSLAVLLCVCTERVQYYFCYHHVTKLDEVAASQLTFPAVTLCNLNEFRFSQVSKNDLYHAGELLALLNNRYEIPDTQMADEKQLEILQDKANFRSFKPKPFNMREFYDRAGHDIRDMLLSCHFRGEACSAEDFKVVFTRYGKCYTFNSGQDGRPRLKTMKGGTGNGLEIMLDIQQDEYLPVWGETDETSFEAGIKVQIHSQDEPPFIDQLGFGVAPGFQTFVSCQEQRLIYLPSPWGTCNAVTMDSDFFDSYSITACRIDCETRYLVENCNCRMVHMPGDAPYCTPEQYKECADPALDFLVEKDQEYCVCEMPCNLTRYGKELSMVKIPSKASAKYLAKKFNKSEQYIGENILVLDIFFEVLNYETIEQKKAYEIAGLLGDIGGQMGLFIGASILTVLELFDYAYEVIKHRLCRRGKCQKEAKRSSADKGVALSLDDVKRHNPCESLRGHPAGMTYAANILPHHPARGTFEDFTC
The note with it: read-out: Amiloride sensitivity, KD; cited from earlier work.

The target of the next assay is T2, human BNaC4 (Homo sapiens, UniProt Q96FT7).
T2 sequence (Q96FT7 1-539): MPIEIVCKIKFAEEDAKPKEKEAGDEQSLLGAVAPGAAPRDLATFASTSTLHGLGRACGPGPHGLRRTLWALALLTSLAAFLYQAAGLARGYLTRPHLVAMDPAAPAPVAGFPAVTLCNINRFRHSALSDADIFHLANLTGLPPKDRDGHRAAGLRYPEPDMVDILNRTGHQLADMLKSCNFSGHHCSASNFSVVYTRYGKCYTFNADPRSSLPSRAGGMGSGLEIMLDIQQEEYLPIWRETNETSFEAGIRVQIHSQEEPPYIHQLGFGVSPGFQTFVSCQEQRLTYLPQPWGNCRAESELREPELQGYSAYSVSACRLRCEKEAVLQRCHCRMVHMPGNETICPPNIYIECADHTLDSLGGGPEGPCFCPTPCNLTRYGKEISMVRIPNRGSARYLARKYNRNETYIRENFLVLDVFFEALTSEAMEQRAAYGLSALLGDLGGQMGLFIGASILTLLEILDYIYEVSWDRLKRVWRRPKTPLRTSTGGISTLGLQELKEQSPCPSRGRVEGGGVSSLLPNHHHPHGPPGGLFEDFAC
Kind of assay: pH 4.5-elicited current in HEK293 cells transiently expressing human BNaC4 (whole cell patch clamp). Type of assay: cell-based. On the set-up: achieved by transfection of full-length human BNaC4 cDNA into a mammalian host cell; expressed in transfected cells; host or cells: HEK293, transient co-transfection of phBNaC4 (pCI Neo) and pEGFP. The note with it: 500 uM amiloride; HEK293 cells transfected with hBNaC4; n=3. As to the method: Human HEK293 cells were transfected with human BNaC4 (phBNaC4) together with the pEGFP vector (Clontech). Transient transfections 2 μg of phBNAC4 together with 1 μg pEGFP per 10^6 cells per 100 mm dish are performed using the Effectene transfection kit (Quiagen; 301425). Two to three days after transfection, cells are plated onto 12 mm round coverslips and maintained in growth media overnight. After one day, wells were tested for their whole cell response to application of low pH from nearby puffer pipettes using whole cell voltage clamp. Cells expressing GFP were tested (GFP-positive cells). Transfections with vector alone with GFP were used as controls (GFP-positive). […] The standard physiological saline (“Tyrodes”) contained: 130 mM NaCl, 4 mM KCl, 1 mM CaCl2, 1.2 mM MgCl2, and 10 mM hemi-Na-HEPES (pH 7.3, 295-300 mOsm as measured using a Wescor 5500 vapor-pressure (Wescor, Inc., Logan, Utah). Recording electrodes were fabricated from borosilicate capillary tubing (R6; Garner Glass, Claremont, Calif.), the tips are coated with dental periphery wax (Miles Laboratories, South Bend, Ind.), and have resistances of 1-2 MΩ when containing intracellular saline: 100 mM K-gluconate, 25 mM KCl, 0.483 mM CaCl2, 3 mM MgCl2, 10 mM hemi-Na-HEPES and 1 mM K4-BAPTA (100 nM free Ca^+2); pH 7.4, with dextrose added to achieve 290 mOsm). […]
Background: In patch-clamp work, channel activity is measured electrically.

`N=C(N)NC(=O)c1nc(Cl)c(N)nc1N` [amiloride]: on ASIC1A, the Kd was around 10 µM. In addition, the “block of the pH 4.5 effect (current elicited by pH 4.5)” value at human BNaC4 is reported as 98+/−2%.
